Data set [1] is described as follows: Molar enthalpy of transition or fusion. The note with it: Crystal; DSC.
The conditions of data set [2]: DTA.

± gives the expanded uncertainty stated by the source.

For `O=C(O)CCCCCC(=O)O` [1,7-heptanedioic acid], the “Molar enthalpy of transition or fusion” value in data set [1] came to 6.88 ± 0.287 kcal/mol. The Normal melting temperature in data set [2] (Crystal) was 104.2 ± 2 °C.
`CC(C)(CC(=O)O)C(=O)O` [2,2-dimethyl-1,4-butanedioic acid]: the “Molar enthalpy of transition or fusion” value in data set [1] is 9.11 ± 0.287 kcal/mol. Besides, the Normal melting temperature in data set [2] (Crystal 1) came to 138 ± 2 °C.
Take `O=C(O)CCCCC(=O)O` [1,6-hexanedioic acid]: in data set [1], the “Molar enthalpy of transition or fusion” value turned out to be 8.41 ± 0.382 kcal/mol. Also, the Normal melting temperature in data set [2] (Crystal) was determined as 153.2 ± 2 °C.
Taken in the same sequence, the figures for `CC(C(=O)O)C(C)C(=O)O` (configuration not stated) [2,3-dimethyl-1,4-butanedioic acid] were 4.04 ± 0.167 kcal/mol and 119.4 ± 2 °C.
Taken in the same sequence, the figures for `O=C(O)CCCC(=O)O` [1,5-pentanedioic acid] were 5.14 ± 0.215 kcal/mol and 96.0 ± 2 °C.
For the molecule `CC(CC(=O)O)CC(=O)O` [3-methylpentanedioic acid], in data set [1], the “Molar enthalpy of transition or fusion” value is 7.39 ± 0.287 kcal/mol. Further, the Normal melting temperature in data set [2] (Crystal 1) was 85.5 ± 2 °C.

For the origin of these results see the NIST ThermoML archive (doi:10.1021/je200800f).
